Key:
[1] = biological target: Phospho-KIT (Tyr719) in GIST430 cells (Homo sapiens, UniProt P10721); test: GIST430 KIT Western Blot; format: cell-based; conditions: 4 hours, read-out: pKIT suppression by western blot analysi GIST430
Method: (§1) GIST48, GIST430, and GIST882 cells were obtained from J. Fletcher (Brigham and Women's Hospital, Boston, Mass.). GIST T1 cells were obtained from B. Rubin (Cleveland Clinic, Cleveland, Ohio) and Professor Takahiro Taguchi (Kochi Medical School, Nankoku, Kochi, Japan). […] GIST430 cells were grown in Ham's F10 medium supplemented with 15% characterized fetal bovine serum (Invitrogen, Carlsbad, Calif.), 30 mg/L bovine pituitary extract (BD Biosciences, San Jose, Calif.), 0.5% Mito+ serum extender (BD Biosciences, San Jose, Calif.), 1 unit/mL penicillin G, 1 μg/ml streptomycin, and 0.29 mg/mL L-glutamine at 37° C., 5% CO2, 95% humidity. GIST T1 cells were grown in DMEM medium supplemented with 10% characterized fetal bovine serum (Invitrogen, Carlsbad, Calif.), 1 unit/mL penicillin G, 1 ng/ml streptomycin, and 0.29 mg/mL L-glutamine at 37° C., 5% CO2, and 95% humidity. Cells were allowed to expand until reaching 70-95% confluence at which point they were subcultured or harvested for assay use.
(§2) One hundred fifty thousand cells were added per well in a 24-well tissue-culture treated plate. Cells were then incubated overnight at 37° C., 5% CO2, 95% humidity. Medium was aspirated, cells were washed with PBS, and serum-free Ham's F10 medium was added. A serial dilution of test compound was added to plates containing cells and plates were incubated for 4 hours at 37° C., 5% CO2, 95% humidity. Cells were washed with PBS, then lysed. Cell lysates were separated by SDS-PAGE and transferred to PVDF. Phospho-KIT (Tyr719) was detected using an antibody from Cell Signaling Technology (Beverly, Mass.), ECL Plus detection reagent (GE Healthcare, Piscataway, N.J.) and a Molecular Devices Storm 840 phosphorimager in fluorescence mode. Blots were stripped and probed for total KIT using an antibody from Santa Cruz Biotech (Santa Cruz, Calif.). IC50 values were calculated using Prism software (Graphpad, San Diego, Calif.).

[2] = biological target: Phospho-KIT (Tyr719) in GIST48 cells (Homo sapiens, UniProt P10721); test: GIST48 KIT Western Blot; format: cell-based; conditions: 4 hours, read-out: pKIT suppression by western blot analysi GIST48
Method: as §1
as §2, with “Two” for “One”, “RPMI1640” for “Ham's F10”

Phospho-KIT (Tyr719) in GIST430 cells, sequence (P10721 with tags, fused parts or gaps DEL560-576/V654A, form open): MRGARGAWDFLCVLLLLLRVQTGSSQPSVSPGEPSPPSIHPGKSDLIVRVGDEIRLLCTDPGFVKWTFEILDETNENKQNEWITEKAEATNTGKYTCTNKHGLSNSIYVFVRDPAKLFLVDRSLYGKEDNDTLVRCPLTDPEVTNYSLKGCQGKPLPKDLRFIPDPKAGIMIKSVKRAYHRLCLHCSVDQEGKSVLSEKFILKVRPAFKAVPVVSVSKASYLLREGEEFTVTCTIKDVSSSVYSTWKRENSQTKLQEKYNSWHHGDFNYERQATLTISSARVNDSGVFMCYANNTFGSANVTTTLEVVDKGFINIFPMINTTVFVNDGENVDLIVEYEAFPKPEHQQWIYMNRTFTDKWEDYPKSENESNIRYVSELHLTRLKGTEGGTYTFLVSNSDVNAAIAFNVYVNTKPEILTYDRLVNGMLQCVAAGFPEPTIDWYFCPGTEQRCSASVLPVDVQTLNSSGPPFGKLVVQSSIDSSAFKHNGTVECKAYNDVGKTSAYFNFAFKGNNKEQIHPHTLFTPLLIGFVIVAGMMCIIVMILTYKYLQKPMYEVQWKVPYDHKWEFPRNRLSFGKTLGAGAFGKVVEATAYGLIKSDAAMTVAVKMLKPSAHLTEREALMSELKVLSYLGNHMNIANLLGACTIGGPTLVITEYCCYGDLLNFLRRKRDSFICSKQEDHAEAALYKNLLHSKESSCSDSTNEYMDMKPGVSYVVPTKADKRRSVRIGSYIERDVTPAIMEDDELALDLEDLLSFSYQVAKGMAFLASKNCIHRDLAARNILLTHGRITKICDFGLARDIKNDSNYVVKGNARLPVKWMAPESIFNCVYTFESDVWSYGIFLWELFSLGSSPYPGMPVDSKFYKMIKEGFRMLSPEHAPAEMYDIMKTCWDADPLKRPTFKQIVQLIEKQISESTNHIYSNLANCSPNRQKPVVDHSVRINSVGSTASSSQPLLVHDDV
Phospho-KIT (Tyr719) in GIST48 cells, sequence (P10721 whole entry V560D/D820A, form open): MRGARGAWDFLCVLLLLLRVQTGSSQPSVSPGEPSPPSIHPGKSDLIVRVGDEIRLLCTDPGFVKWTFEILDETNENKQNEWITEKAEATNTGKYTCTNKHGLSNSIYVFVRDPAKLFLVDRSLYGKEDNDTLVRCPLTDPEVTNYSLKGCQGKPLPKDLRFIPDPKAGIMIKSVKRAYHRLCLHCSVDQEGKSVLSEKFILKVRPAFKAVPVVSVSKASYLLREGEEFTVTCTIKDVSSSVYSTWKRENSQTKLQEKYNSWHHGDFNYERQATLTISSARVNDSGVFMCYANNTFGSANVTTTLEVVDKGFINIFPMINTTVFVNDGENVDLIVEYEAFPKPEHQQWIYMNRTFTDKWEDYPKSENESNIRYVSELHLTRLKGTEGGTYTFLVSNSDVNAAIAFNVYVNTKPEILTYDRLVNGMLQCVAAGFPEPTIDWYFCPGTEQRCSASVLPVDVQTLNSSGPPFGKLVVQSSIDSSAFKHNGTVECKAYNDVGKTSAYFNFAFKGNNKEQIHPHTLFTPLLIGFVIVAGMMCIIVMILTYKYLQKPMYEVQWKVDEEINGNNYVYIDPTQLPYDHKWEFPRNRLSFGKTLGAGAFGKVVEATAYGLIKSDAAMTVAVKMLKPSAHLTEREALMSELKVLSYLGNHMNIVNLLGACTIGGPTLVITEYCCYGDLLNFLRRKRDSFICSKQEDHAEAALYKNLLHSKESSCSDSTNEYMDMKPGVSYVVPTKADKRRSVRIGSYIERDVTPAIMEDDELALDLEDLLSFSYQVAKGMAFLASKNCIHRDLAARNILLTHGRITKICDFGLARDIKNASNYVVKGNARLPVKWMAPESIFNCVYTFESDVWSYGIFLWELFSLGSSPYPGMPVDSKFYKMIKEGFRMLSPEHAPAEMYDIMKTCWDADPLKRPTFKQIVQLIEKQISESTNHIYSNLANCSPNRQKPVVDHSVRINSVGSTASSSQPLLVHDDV

| IC50 [1] [nM] | IC50 [2] [nM] | SMILES |
| --- | --- | --- |
| < 10 | 10 to 100 | CCn1c(=O)c(-c2cc(NC(=O)Nc3cccc4ccccc34)c(F)cc2C)cc2cnc(NC)cc21 [Example 1, 1-(5-(1-ethyl-7-(methylamino)-2-oxo-1,2-dihydro-1,6-naphthyridin-3-yl)-2-fluoro-4-methylphenyl)-3-(naphthalen-1-yl)urea] |
| 10 to 100 | 10 to 100 | CCn1c(=O)c(-c2cc(NC(=O)Nc3cccc(F)c3F)c(F)cc2Cl)cc2cnc(NC)cc21 [Example 4, 1-(4-chloro-5-(1-ethyl-7-(methylamino)-2-oxo-1,2-dihydro-1,6-naphthyridin-3-yl)-2-fluorophenyl)-3-(2,3-difluorophenyl)urea] |
| < 10 | < 10 | CCn1c(=O)c(-c2cc(NC(=O)Nc3cccc4ccccc34)c(F)cc2Cl)cc2cnc(NC)cc21 [Example 6, 1-(4-chloro-5-(1-ethyl-7-(methylamino)-2-oxo-1,2-dihydro-1,6-naphthyridin-3-yl)-2-fluorophenyl)-3-(naphthalen-1-yl)urea] |
| 10 to 100 | < 10 | CNc1cc2c(cn1)cc(-c1cc(NC(=O)Nc3csc4ccccc34)c(F)cc1F)c(=O)n2C [Example 14, 1-(benzo[b]thiophen-3-yl)-3-(2,4-difluoro-5-(1-methyl-7-(methylamino)-2-oxo-1,2-dihydro-1,6-naphthyridin-3-yl)phenyl)urea] |
| 10 to 100 | 10 to 100 | CCn1c(=O)c(-c2cc(NC(=O)Nc3cccc(F)c3)c(F)cc2F)cc2cnc(NC)cc21 [Example 15, 1-(5-(1-ethyl-7-(methylamino)-2-oxo-1,2-dihydro-1,6-naphthyridin-3-yl)-2,4-difluorophenyl)-3-(3-fluorophenyl)urea] |
| 100 to 1000 | 100 to 1000 | CCn1c(=O)c(-c2cc(NC(=O)Nc3ccccc3)c(F)cc2F)cc2cnc(NC)cc21 [Example 16, 1-(5-(1-ethyl-7-(methylamino)-2-oxo-1,2-dihydro-1,6-naphthyridin-3-yl)-2,4-difluorophenyl)-3-phenylurea] |
| 10 to 100 | 100 to 1000 | CCn1c(=O)c(-c2cc(NC(=O)Nc3cccc(F)c3)c(F)cc2Cl)cc2cnc(N)cc21 [Example 20, 1-(5-(7-amino-1-ethyl-2-oxo-1,2-dihydro-1,6-naphthyridin-3-yl)-4-chloro-2-fluorophenyl)-3-(3-fluorophenyl)urea] |
| 10 to 100 | 10 to 100 | CNc1cc2c(cn1)cc(-c1cc(NC(=O)Nc3ccccc3)c(F)cc1Cl)c(=O)n2C(C)C [Example 22, 1-(4-chloro-2-fluoro-5-(1-isopropyl-7-(methylamino)-2-oxo-1,2-dihydro-1,6-naphthyridin-3-yl)phenyl)-3-phenylurea] |
| < 10 | 10 to 100 | CCn1c(=O)c(-c2cc(NC(=O)Nc3cccc(F)c3)c(F)cc2Cl)cc2cnc(NC)cc21 [Example 24, 1-[4-chloro-5-(1-ethyl-7-methylamino-2-oxo-1,2-dihydro-[1,6]naphthyridin-3-yl)-2-fluoro-phenyl]-3-(3-fluoro-phenyl)-urea] |
| 10 to 100 | 10 to 100 | CCn1c(=O)c(-c2cc(NC(=O)Nc3ccccc3F)c(F)cc2Cl)cc2cnc(NC)cc21 [Example 25, 1-[4-chloro-5-(1-ethyl-7-methylamino-2-oxo-1,2-dihydro-[1,6]naphthyridin-3-yl)-2-fluoro-phenyl]-3-(2-fluoro-phenyl)-urea] |
| 10 to 100 | 10 to 100 | CCn1c(=O)c(-c2cc(NC(=O)Nc3ccccc3)c(F)cc2Cl)cc2cnc(NCCOC)cc21 [Example 27, 1-(4-chloro-5-(1-ethyl-7-(2-methoxyethylamino)-2-oxo-1,2-dihydro-1,6-naphthyridin-3-yl)-2-fluorophenyl)-3-phenylurea] |
| 10 to 100 | 100 to 1000 | CCn1c(=O)c(-c2cc(NC(=O)Nc3cccc(F)c3)c(F)cc2Cl)cc2cnc(NCCOC)cc21 [Example 28, 1-(4-chloro-5-(1-ethyl-7-(2-methoxyethylamino)-2-oxo-1,2-dihydro-1,6-naphthyridin-3-yl)-2-fluorophenyl)-3-(3-fluorophenyl)urea] |
| < 10 | < 10 | CCn1c(=O)c(-c2cc(NC(=O)Nc3csc4ccccc34)c(F)cc2Cl)cc2cnc(NC)cc21 [Example 32] |
| 10 to 100 |  | CCn1c(=O)c(-c2cc(NC(=O)Nc3ccccc3)ccc2Cl)cc2cnc(NC)cc21 [Example 33, 1-(4-chloro-3-(1-ethyl-7-(methylamino)-2-oxo-1,2-dihydro-1,6-naphthyridin-3-yl)phenyl)-3-phenylurea] |
| 100 to 1000 | 100 to 1000 | CCn1c(=O)c(-c2cc(NC(=O)Nc3ccccc3)c(F)cc2F)cc2cnc(NCCOC)cc21 [Example 36, 1-(5-(1-ethyl-7-(2-methoxyethylamino)-2-oxo-1,2-dihydro-1,6-naphthyridin-3-yl)-2,4-difluorophenyl)-3-phenylurea] |
| 10 to 100 | 100 to 1000 | CNc1cc2c(cn1)cc(-c1cc(NC(=O)Nc3cccc(F)c3)c(F)cc1C)c(=O)n2C(C)C [Example 41, 1-(2-fluoro-5-(1-isopropyl-7-(methylamino)-2-oxo-1,2-dihydro-1,6-naphthyridin-3-yl)-4-methylphenyl)-3-(3-fluorophenyl)urea] |
| < 10 | 10 to 100 | CCn1c(=O)c(-c2cc(NC(=O)Nc3cccc(F)c3)c(F)cc2C)cc2cnc(NC)cc21 [Example 44, 1-(5-(1-ethyl-7-(methylamino)-2-oxo-1,2-dihydro-1,6-naphthyridin-3-yl)-2-fluoro-4-methylphenyl)-3-(3-fluorophenyl)urea] |
| < 10 | 100 to 1000 | CCn1c(=O)c(-c2cc(NC(=O)Nc3cccc(F)c3)c(F)cc2Br)cc2cnc(NC)cc21 [Example 50, 1-(4-bromo-5-(1-ethyl-7-(methylamino)-2-oxo-1,2-dihydro-1,6-naphthyridin-3-yl)-2-fluorophenyl)-3-(3-fluorophenyl)urea] |
| 10 to 100 | 100 to 1000 | CCn1c(=O)c(-c2cc(NC(=O)Nc3ccccc3)c(F)cc2Br)cc2cnc(NCCOC)cc21 [Example 51, 1-(4-bromo-5-(1-ethyl-7-(2-methoxyethylamino)-2-oxo-1,2-dihydro-1,6-naphthyridin-3-yl)-2-fluorophenyl)-3-phenylurea] |
| 10 to 100 | 10 to 100 | CCn1c(=O)c(-c2cc(NC(=O)Nc3ccccc3)c(F)cc2Cl)cc2cnc(NC(C)=O)cc21 [Example 54, 1-(5-(7-acetamido-1-ethyl-2-oxo-1,2-dihydro-1,6-naphthyridin-3-yl)-4-chloro-2-fluorophenyl)-3-phenylurea] |
| 10 to 100 | > 1000 | CCn1c(=O)c(-c2cc(NC(=O)Nc3cc(F)cc(F)c3)c(F)cc2Cl)cc2cnc(NC)cc21 [Example 55, 1-(4-chloro-5-(1-ethyl-7-(methylamino)-2-oxo-1,2-dihydro-1,6-naphthyridin-3-yl)-2-fluorophenyl)-3-(3,5-difluorophenyl)urea] |
|  | < 10 | CCn1c(=O)c(-c2cc(NC(=O)Nc3ccccc3)c(F)cc2C)cc2cnc(NC(=O)N3CCC3)cc21 [Example 110, N-(1-ethyl-3-(4-fluoro-2-methyl-5-(3-phenylureido)phenyl)-2-oxo-1,2-dihydro-1,6-naphthyridin-7-yl)azetidine-1-carboxamide] |
